By IC50 is commonly meant the concentration needed to halve the response being measured. A low value points to inhibition by little substance. The ED50 is the midpoint of the dose-response relation.

Molecules are shown by their SMILES.

The record followed here is patent US4778801A, “Isoindolinone derivatives, production and use thereof” (Takeda Chemical Industries, Ltd., priority 1984, dated 1988).

The target of assay [1] is benzodiazepine receptors. Description: specific binding to benzodiazepine receptors, [3H]-diazepam displacement. Particulars: [3H]diazepam 2 nM, pH 7.4, 4° C., 20 minutes. The procedure: The compounds (I) according to the invention were tested for their affinity for benzodiazepine receptors using radioactive [^3 H]-diazepam.
The assay for specific binding to benzodiazepine receptors was performed according to the method described in the literature (Nature, 266, 732 (1977); European J. Pharmacol., 48, 263 (1978)). Thus, a crude mitochondrial fraction obtained from the cerebral cortex of SD strain male rats aged 9 to 10 weeks was suspended in 50 mM Tris-HCl buffer (pH 7.4), followed by addition of the test drug at several concentration levels and of [^3 H]diazepam (final concentration 2 nM). Each suspension was incubated at 4° C. for 20 minutes and then filtered through a Whatman GF/B glassfiber filter, and the radioactivity of [^3 H]diazepam on the filter was measured with a liquid scintillation counter. In this manner, the IC50 value, namely the concentration of the test drug at which the [^3 H]diazepam binding was inhibited by 50%, was determined.

For assay [2], the system named is mice. Briefly: sleep-inducing activity, potentiation of pentobarbital sleep. Type of assay: in vivo. Particulars: Mus musculus, oral, 30 minutes before pentobarbital 25 mg/kg i.p. The procedure:
Mice, in groups of eight, were orally administered the test compound and, 30 minutes later, intraperitoneally administered 25 mg/kg of pentobarbital. The loss of righting reflex which lasted for 2 minutes or longer during the 30-minute period following pentobarbital administration was taken as an indication of sleep potentiation. The dose, ED50, of the test compound as required to achieve sleep potentiation in 50% of mice was calculated.

The test system of assay [3] is rats. Description: muscle relaxant activity, rotating rod. In kind it is in vivo. Particulars: Rattus norvegicus, 1 min, 50% of rats fall off within 1 minute. The procedure: Groups of 6 rats were used. The rats were placed on a rotating rod with a diameter of 3.5 cm. The rod rotated with a speed of 8 revolutions per minute. […] The dose, ED50, of the test compound as required to make 50% of the rats fall off the rod was calculated [J. Am. Pharmaceutical Association, 46, 208 (1957)].

The subject of assay [4] is male rat (SD/JCL). Briefly: antianxiety activity, anticonflict test (Vogel et al.). In kind it is in vivo. Particulars: po; orally administered, male rat, 30, 60 or 180 minutes after administration; read-out: Antianxiety activity MED. The procedure:
The antianxiety activity measurement was performed in accordance with Vogel et al. [Psychopharmacologia, 21, 1 (1970)] as follows: An apparatus comprising a large clear box with a stainless steel grid floor and a smaller opaque dark box provided with a drinking tube was arranged such that a rat placed therein could receive, on the sole, electric shocks through the grid floor following each twentieth lick. The test compound was orally administered to each male rat (SD/JCL) deprived of water for 48 hours prior to the test, which rat was then, 30, 60 or 180 minutes after administration, placed in the apparatus mentioned above and the number of licks was recorded over 3 minutes. The increase in the number of licks as compared with a physiological saline group was determined and taken as a measure of antianxiety potency, and the minimum effective dose determined accordingly.

Consider `O=C(CC1c2ccccc2C(=O)N1c1ccc2ccc(Cl)nc2n1)N1CCC(=NO)CC1` (centres unmarked), for which the 50% inhibitory concentration (IC50) in assay [1] was determined as 0.645 nM.

As to `O=C(CC1c2ccccc2C(=O)N1c1ccc2ccc(Cl)nc2n1)N1CCC2(CC1)SCCCS2` (centres unmarked), the half-maximal inhibitory concentration (IC50) in assay [1] was 0.562 nM.

Turning to `COC1(OC)CCN(C(=O)CC2c3ccccc3C(=O)N2c2ccc3ccc(Cl)nc3n2)CC1` (centres unmarked) [drawing 39], the figures for the ED50 in assay [2] and in assay [3] were around 50 mg/kg and above 40 mg/kg, respectively. The minimal effective dose in assay [4] is below 20 mg/kg.

In assay [1], `COc1ccc(N2C(=O)c3ccc([N+](=O)[O-])cc3C2CC(=O)N2CCC(=O)CC2)cc1` (centres unmarked) registered an IC50 of 6.16 nM. On the same count and under the same terms, the same measure for `CCC(=O)OC1CCN(C(=O)CC2c3ccccc3C(=O)N2c2ccc3ccc(Cl)nc3n2)CC1` (centres unmarked): 1 nM. With `O=C1CCN(C(=O)CC2c3ccccc3C(=O)N2c2ccc3ccc(Cl)nc3n2)CC1` (centres unmarked) [drawing 38], the ED50 in assay [2] was 24.3 mg/kg; in assay [3], above 80 mg/kg. Also, in assay [4], the minimal effective dose was found to be 20 mg/kg. The molecule `COc1ccc(N2C(=O)c3ccc(Cl)cc3C2CC(=O)N2CCC(=NO)CC2)cc1` (centres unmarked) yielded an IC50 in assay [1] of 3.47 nM.

For `COc1ccc(N2C(=O)c3ccc(Cl)cc3C2CC(=O)N2CCC3(CC2)OCCO3)cc1` (centres unmarked), the IC50 in assay [1] was found to be 8.71 nM. Still for that read-out and setting: to `CC1(C)COC2(CCN(C(=O)CC3c4ccccc4C(=O)N3c3ccc4ccc(Cl)nc4n3)CC2)OC1` (centres unmarked) belongs 2.4 nM. As for `O=C(CC1c2ccccc2C(=O)N1c1ccc2ccc(Cl)nc2n1)N1CCC2(CC1)OCCO2` (centres unmarked) [drawing 36], the values for the ED50 in assay [2] and in assay [3] were above 50 mg/kg and above 80 mg/kg, respectively. In assay [4], the minimal effective dose worked out at 5 mg/kg. The molecule `CC(=O)OC1CCN(C(=O)CC2c3ccccc3C(=O)N2c2ccc3ccc(Cl)nc3n2)CC1` (centres unmarked) gave a half-inhibitory concentration (IC50) in assay [1] of 0.501 nM. In turn, `O=C(CC1c2ccccc2C(=O)N1c1ccc2ccc(Cl)nc2n1)N1CCC2(CC1)OCCCO2` (centres unmarked) displayed an IC50 in assay [1] of 4.9 nM. `COc1ccc(N2C(=O)c3ccc([N+](=O)[O-])cc3C2CC(=O)N2CCC3(CC2)OCCO3)cc1` (centres unmarked) registered a half-inhibitory concentration (IC50) in assay [1] of 21.9 nM. As to `O=C(CC1c2ccccc2C(=O)N1c1ccc2ccc(Cl)nc2n1)N1CCC2(CC1)SCCS2` (centres unmarked), in assay [1], the 50% inhibitory concentration (IC50) came out at 1.23 nM. Molecule `O=C(CC1c2ccccc2C(=O)N1c1ccc2ccc(Cl)nc2n1)N1CCC2(CC1)OCCO2` (centres unmarked) [drawing 17] registered an IC50 in assay [1] of 0.38 nM. For `COc1ccc(N2C(=O)c3ccc(Cl)cc3C2CC(=O)N2CCC(=O)CC2)cc1` (centres unmarked), the IC50 in assay [1] was 2.4 nM.

For `O=C1CCN(C(=O)CC2c3ccccc3C(=O)N2c2ccc3ccc(Cl)nc3n2)CC1` (centres unmarked) [drawing 16], in assay [1], the IC50 was determined as 0.537 nM. As to `O=C(CC1c2ccccc2C(=O)N1c1ccc2ccc(Cl)nc2n1)N1CCC(O)CC1` (centres unmarked) [drawing 41], the median effective dose (ED50) is 40.2 mg/kg in assay [2] and above 80 mg/kg in assay [3]. For the same molecule, the minimal effective dose in assay [4] was above 30 mg/kg. In the case of `O=C(CC1c2ccccc2C(=O)N1c1ccc2ccc(Cl)nc2n1)N1CCC(O)CC1` (centres unmarked) [drawing 34], the 50% inhibitory concentration (IC50) in assay [1] came out at 0.794 nM. In turn, `COC1(OC)CCN(C(=O)CC2c3ccccc3C(=O)N2c2ccc3ccc(Cl)nc3n2)CC1` (centres unmarked) [drawing 19] showed a 50% inhibitory concentration (IC50) in assay [1] of 1.29 nM. Regarding `COc1ccc(N2C(=O)c3ccc([N+](=O)[O-])cc3C2CC(=O)N2CCC(=NO)CC2)cc1` (centres unmarked), in assay [1], the IC50 stood at 7.94 nM.
